Measurements as given in publication PMC8122671, “New Succinimides with Potent Anticancer Activity: Synthesis, Activation of Stress Signaling Pathways and Characterization of Apoptosis in Leukemia and Cervical Cancer Cells” (International Journal of Molecular Sciences, 2021).
Entries after “also recorded” stand apart in the source; their conditions may differ.

What was measured:
[1] = system: plasmid DNA (pcDNA3.1HisC); test: DNA-cleavage protection assay (BamHI digestion of plasmid DNA); type: biochemical; conditions: 100 µM, overnight 37 °C, then BamHI 3 h
Protocol: A DNA-cleavage protection assay has been successfully used for the identification of compounds that bind DNA either covalently or noncovalently. Such binding may result in DNA being less susceptible to enzymatic cleavage. […] It was also reported that naphtalenoimides or indolomaleimides intercalate into DNA [13, 14]. […] In CD studies, a synthetic 23-nt duplex DNA or bovine thymus DNA was incubated with compound Ic or daunorubicin (reference compound). […] Using a DNA-cleavage protection assay, we investigated whether selected compounds 2c, 2d, and 2f and 3c, 3d, and 3f interact with a plasmid DNA, resulting in increased resistance to endonucleolytic cleavage. Plasmid DNA (pcDNA3.1HisC) containing a single BamHI cleavage site was incubated with test compounds and subsequently digested with BamH1 restriction endonuclease. Daunorubicin (a strong DNA-intercalating agent) was used as a reference compound. Non-digested plasmid DNA existed predominantly in the circular form; however, the superhelical and linear forms were also detected (Figure 5, lane 1). […] This observation can be explained by the higher lipophilicity of 3c, 3d, and 3f compared to 2c, 2d, and 2f, which may facilitate their more efficient binding to DNA.
First, 0.5 μg of plasmid DNA (pcDNAHisC, total length 5.5 kbp) containing a unique BamHI restriction site was dissolved in a 1× BamHI reaction buffer and incubated overnight at 37 °C with the test compounds or daunorubicin. Daunorubicin, a strong intercalating agent, was used as a positive control. The concentration of the test compounds and daunorubicin samples was 100 µM. In the next step, the reaction mixtures were digested with BamHI restriction endonuclease (2 U/μL) for 3 h at 37 °C. The total reaction volume was 10 μL. Products of the reaction were subjected to the 1% agarose gel electrophoresis in TBE buffer. The gel was stained with ethidium bromide, and DNA fragments were visualized under a UV lamp (GBox, Syngene).

[2] = system: MOLT-4 (Human T-Lymphoid Cell Line); test: MTT cytotoxicity assay, MOLT-4; type: cell-based; conditions: MOLT-4, 48 h incubation, average (SD) of three experiments, read-out: IC50 MOLT-4
[3] = system: HeLa (human cervix carcinoma) cells; test: MTT cytotoxicity assay, HeLa; type: cell-based; conditions: 48 h incubation, average (SD) of three experiments, read-out: IC50 HeLa
[4] = system: caspase 3/7 in K562 cells; test: Caspase-3/7 activity assay (Apo-ONE) in K562 cells; type: cell-based, human; conditions: K562, 18 h, test compound at 5xIC50, staurosporine 1 μM; vs 1% DMSO
Protocol: After incubation for 18 h, K562 cells were lysed and the activity of caspase 3/7 was measured using a profluorescent peptide substrate.
First, 20 × 10^3 K562 cells were seeded on each well of a 96-well plate in RPMI 1640 medium supplemented with 10% fetal calf serum and antibiotics. Cells were grown for 24 h at 37 °C and 5% CO2. Test dicarboximides were dissolved in DMSO and added to cell culture to the final concentration of 5 × IC50. […] Cells were exposed to test compounds for 18 h at 37 °C and 5% CO2. Subsequently, the activity of caspase 3 and 7 was measured by Apo-ONE® Homogeneous Caspase-3/7 Assay (Promega, Madison, WI, USA) according to the manufacturer’s instructions. Briefly, the cells were lysed and incubated for 1.5 h with a profluorescent substrate for caspase 3 and 7. Next, the fluorescence was read at an excitation wavelength of 485 nm and emission of 520 nm with a FLUOStar Omega microplate reader (BMG-Labtech, Offenburg, Germany).

Row | SMILES | protection of plasmid DNA from BamHI digestion (circular DNA left) [1] | IC50 [2] [nM] | IC50 [3] [nM] | activity of caspase 3/7 [4]
1 | CCN(CC)CC(O)CN1C(=O)C2C(C1=O)C1(c3ccccc3)CC2(c2ccccc2)C(c2ccccc2)=C1c1ccccc1 (stereo not shown) [3d, 4-[3-(diethylamino)-2-hydroxypropyl]-1,7,8,9-tetraphenyl-4-azatricyclo[5.2.1.0^2,6]dec-8-ene-3,5-dione] | interaction seems to be stronger | 2200 | 1900 | activated caspase 3/7 to a lesser extent; also recorded: activated caspase 3 and 7
2 | CC(C)(C)NCC(O)CN1C(=O)C2C(C1=O)C1(c3ccccc3)CC2(c2ccccc2)C(c2ccccc2)=C1c1ccccc1 (stereo not shown) [3c, 4-[3-(tert-butylamino)-2-hydroxypropyl]-1,7,8,9-tetraphenyl-4-azatricyclo[5.2.1.0^2,6]dec-8-ene-3,5-dione] | interaction seems to be stronger | 2600 | 2000 | activated caspase 3/7 to a lesser extent; also recorded: activated caspase 3 and 7
3 | CCN(CC)CC(O)CN1C(=O)C2C(C1=O)C1(CC)C(=O)C2(CC)C(c2ccccc2)=C1c1ccccc1 (stereo not shown) [2d, 4-[3-(diethylamino)-2-hydroxypropyl]-1,7-diethyl-8,9-diphenyl-4-azatricyclo [5.2.1.0^2,6]dec-8-ene-3,5,10-trione] | the circular form was also detected | 14000 | 18000 | over eight-fold increase in caspase activity; also recorded: activated caspase 3 and 7
4 | CCC12C(=O)C(CC)(C(c3ccccc3)=C1c1ccccc1)C1C(=O)N(CC(O)CNC(C)(C)C)C(=O)C12 (stereo not shown) [2c, 4-[3-(tert-butylamino)-2-hydroxypropyl]-1,7-diethyl-8,9-diphenyl-4-azatricyclo [5.2.1.0^2,6]dec-8-ene-3,5,10-trione] | the circular form was also detected | 2500 | 3200 | over eight-fold increase in caspase activity; also recorded: activated caspase 3 and 7
